{
  "source": "patent US10160972B2",
  "about": "“Methods and materials for treating cancer” (Mayo Foundation for Medical Education and Research, priority 2012, dated 2018)",
  "key": {"[1]": {"tested_on": "ATF6 luciferase reporter in A498 cells", "experimental": "(§5) For transient transfection, Caki1 and A498 cells were transfected using Lipofectamine 2000. Cells treated with DMSO vs. A939572 or infected using shSCD780 lentiviral constructs vs. NT control were harvested after 48 hrs using Promega's Dual Luciferase assay kit per the manufacturer's protocol and luciferase activity was measured using a Veritas Luminometer; reported as relative luminescence.\n(§6) Caki1 and A498 cells transfected with an ATF6 luciferase reporter (p5xATF6-GL3) were treated with a 75 nM dose of A939572 or were infected with shSCD780. Resulting luminescence was measured after 48 hours."}, "A498 ccRCC xenografts [2]": {"tested_on": "A498 ccRCC xenografts", "test": "IHC analysis of resected xenograft tumors", "experimental": "The TMAs were mounted on slides from paraffin-embedded blocks according to IHC procedure and samples were blocked with Diluent that contained Background Reducing Components (Dakocytomation) for 30 min and then probed for SCD1, Ki67, Caspase-3, CD31, phospho-mTOR, DDIT3, and XBP1. […] Stain scoring was done using algorithms generated with Imagescope software created by a histologist. H-scores were calculated based upon signal intensity (0-3+) using the formula: [(1+%×1)+(2+%×2)+(3+%×3)], intensity (I)-scores were calculated by dividing signal intensity by area, and nuclear (N)-scores were calculated by dividing % positive nuclei by total nuclei examined per area. Cases where insufficient tumor tissue presented were excluded from the study. 20× images were obtained using Scanscope XT and Imagescope software.\nIHC analysis of tumors resected from each treatment group was analyzed for proliferation, angiogenesis, and cell death (FIG. 6B)."}, "[3]": {"tested_on": "SNU449 liver cancer cells", "test": "Cell number growth inhibition assay", "type": "cell-based, human", "details": "SNU449", "procedure": "(§1) A number of cancer cell lines were tested to determine whether SCD1 protein expression correlates with growth inhibition of an SCD1 inhibitor in human cancer cell lines.\n(§2) Cells (20,000/ml) were plated in 12 well cell culture plates, allowed to attach and treated with the indicated dose of SCD1 inhibitor ([…]) or standard of care (gemcitabine). Cell number was counted using a Coulter Counter. As show in FIG. 7, the data are expressed as percent of DMSO control. Each value represents triplicates. Western analysis for SCD1 protein expression was performed on each cell line with beta-actin as the loading control.\n(§3) The following cell lines were studied using a similar method as that described above."}, "HT29 colon cancer cells": {"tested_on": "HT29 colon cancer cells", "test": "Cell number growth inhibition assay", "type": "cell-based, human", "procedure": "as §1, §2, §3"}, "[4]": {"tested_on": "HT1376 bladder cancer cells", "test": "Cell number growth inhibition assay", "type": "cell-based, human", "procedure": "as §1, §2, §3"}, "Calu-1 lung cancer cells": {"tested_on": "Calu-1 lung cancer cells", "test": "Cell number growth inhibition assay", "type": "cell-based, human", "procedure": "as §1, §2, §3"}, "[5]": {"tested_on": "LNCAP prostate cancer cells", "test": "Cell number growth inhibition assay", "type": "cell-based, human", "procedure": "as §1, §2, §3"}, "[6]": {"tested_on": "MCF-7 (ER+/PR+) breast cancer cells", "test": "Cell number growth inhibition assay", "type": "cell-based, human", "procedure": "as §1, §2, §3"}, "[7]": {"tested_on": "KTC3 thyroid cancer cells", "test": "Cell number growth inhibition assay", "type": "cell-based, human", "procedure": "as §1, §2, §3"}, "A375 melanoma cells": {"tested_on": "A375 melanoma cells", "test": "Cell number growth inhibition assay", "type": "cell-based, human", "procedure": "as §1, §2, §3"}, "[8]": {"tested_on": "OVCA420 ovarian cancer cells", "test": "Cell number growth inhibition assay", "type": "cell-based, human", "procedure": "as §1, §2, §3"}, "Caco2 colon cancer cells": {"tested_on": "Caco2 colon cancer cells", "test": "Cell number growth inhibition assay", "type": "cell-based, human", "procedure": "as §1, §2, §3"}, "[9]": {"tested_on": "HOV TAX2 ovarian cancer cells", "test": "Cell number growth inhibition assay", "type": "cell-based, human", "procedure": "as §1, §2, §3"}, "[10]": {"tested_on": "DU-145 prostate cancer cells", "test": "Cell number growth inhibition assay", "type": "cell-based, human", "procedure": "as §1, §2, §3"}, "Mela 11 melanoma cells": {"tested_on": "Mela 11 melanoma cells", "test": "Cell number growth inhibition assay", "type": "cell-based, human", "procedure": "as §1, §2, §3"}, "[11]": {"tested_on": "BCJ4T bladder cancer cells", "test": "Cell number growth inhibition assay", "type": "cell-based, human", "procedure": "as §1, §2, §3"}, "[12]": {"tested_on": "MDA-231 (triple negative) breast cancer cells", "test": "Cell number growth inhibition assay", "type": "cell-based, human", "procedure": "as §1, §2, §3"}, "T24 bladder cancer cells": {"tested_on": "T24 bladder cancer cells", "test": "Cell number growth inhibition assay", "type": "cell-based, human", "procedure": "as §1, §2, §3"}, "[13]": {"tested_on": "T47D (PR+) breast cancer cells", "test": "Cell number growth inhibition assay", "type": "cell-based, human", "procedure": "as §1, §2, §3"}, "[14]": {"tested_on": "A549 nonsmall cell lung cancer cells", "test": "Cell number growth inhibition assay", "type": "cell-based, human", "procedure": "as §1, §2, §3"}, "A498 ccRCC xenografts [15]": {"tested_on": "A498 ccRCC xenografts", "test": "Western blot of CHOP in xenograft tumor tissue", "type": "in vivo, athymic nude (nu/nu) mice", "details": "normalized to β-actin, tumor tissue samples", "procedure": "(§4) Protein extracts, electrophoresis, and membrane transfers were prepared as previously described (Copland J A, Marlow L A, Kurakata S, Fujiwara K, Wong A K, Kreinest P A, et al. Novel highaffinity PPARgamma agonist alone and in combination with paclitaxel inhibits human anaplastic thyroid carcinoma tumor growth via p21WAF1/CIP1. Oncogene. 2006; 25:2304-17). Primary antibodies included SCD1, PARP, DDIT3, BiP, sXBP1, and β-actin. A Supersignal chemiluminescent kit was used to perform detection."}, "[16]": {"tested_on": "Caki1, A498, Caki2, and ACHN ccRCC cell lines", "test": "PARP cleavage western blot (apoptosis)", "type": "cell-based, human", "procedure": "as §4"}, "Panc cells": {"tested_on": "Panc cells", "test": "Cell number growth inhibition assay", "type": "cell-based, human", "procedure": "as §1, §2"}, "MiaPaca cells": {"tested_on": "MiaPaca cells", "test": "Cell number growth inhibition assay", "type": "cell-based, human", "details": "cell number as percent of DMSO control", "procedure": "as §1, §2"}, "Caki1 and A498 cells": {"tested_on": "Caki1 and A498 cells", "test": "Western blot of ER stress markers", "type": "cell-based, human", "details": "75 nM drug or shSCD780 knockdown, 48 hours", "procedure": "as §4"}, "[17]": {"tested_on": "ATF6 luciferase reporter in Caki1 cells", "experimental": "as §5, §6"}, "[18]": {"tested_on": "Caki1, A498, Caki2, and ACHN ccRCC cells", "test": "Gene array expression analysis", "type": "cell-based, human", "details": "75 nM, 24 hours, vs DMSO control", "procedure": "Gene array expression analysis was performed using Affymetrix Human Genome U133 Plus 2.0 Array chip. The details of the data processing and methodology were previously described in (Tun H W, Marlow L A, von Roemeling C A, Cooper S J, Kreinest P, Wu K, et al. Pathway signature and cellular differentiation in clear cell renal cell carcinoma. PLoS One. 2010; 5:e10696). Gene expression data was deposited at Gene Expression Omnibus (Accession#GSE41485). Pathway analysis was performed using IPA (Ingenuity® Systems)."}, "[19]": {"details": "read-out: estimated IC50 concentration, growth inhibition"}},
  "data": [
    {"smiles": "CNC(=O)c1cccc(NC(=O)N2CCC(Oc3ccccc3Cl)CC2)c1", "note": "[A939572]", "values": [
      {"measurement": "reporter activation with addition of OA-BSA", "setting": "[1]; A498, + OA-BSA", "result": "significantly reduced reporter activation"},
      {"measurement": "luciferase activity, fold change induction", "setting": "[1]; A498, +BSA, 75 nM A939572 or shSCD780, 48 hours, vs DMSO and NT controls", "result": 3.8, "unit": "fold change"},
      {"measurement": "cell death, cleaved caspase-3 (CC3)", "setting": "A498 ccRCC xenografts [2]; vs placebo / other groups", "result": "moderate increase"},
      {"measurement": "proliferation, percent positivity of nuclear Ki67 staining", "setting": "A498 ccRCC xenografts [2]; vs placebo control", "result": "decreased proliferation"},
      {"measurement": "growth inhibition", "setting": "[3]", "result": "growth inhibited in a dose dependent fashion"},
      {"measurement": "IC50", "setting": "[3]; [19]", "result": "~100", "unit": "nM"},
      {"measurement": "growth inhibition", "setting": "HT29 colon cancer cells", "result": "growth inhibited in a dose dependent fashion"},
      {"measurement": "growth inhibition", "setting": "[4]", "result": "growth inhibited in a dose dependent fashion"},
      {"measurement": "growth inhibition", "setting": "Calu-1 lung cancer cells", "result": "not growth inhibited"},
      {"measurement": "growth inhibition", "setting": "[5]", "result": "growth inhibited in a dose dependent fashion"},
      {"measurement": "growth inhibition", "setting": "[6]", "result": "growth inhibited in a dose dependent fashion"},
      {"measurement": "growth inhibition", "setting": "[7]", "result": "growth inhibited in a dose dependent fashion"},
      {"measurement": "growth inhibition", "setting": "A375 melanoma cells", "result": "growth inhibited in a dose dependent fashion"},
      {"measurement": "IC50", "setting": "A375 melanoma cells; [19]", "result": "~50", "unit": "nM"},
      {"measurement": "growth inhibition", "setting": "[8]", "result": "growth inhibited in a dose dependent fashion"},
      {"measurement": "growth inhibition", "setting": "Caco2 colon cancer cells", "result": "growth inhibited in a dose dependent fashion"},
      {"measurement": "growth inhibition", "setting": "[9]", "result": "growth inhibited in a dose dependent fashion"},
      {"measurement": "growth inhibition", "setting": "[10]", "result": "growth inhibited in a dose dependent fashion"},
      {"measurement": "growth inhibition", "setting": "Mela 11 melanoma cells", "result": "not growth inhibited"},
      {"measurement": "growth inhibition", "setting": "[11]", "result": "not growth inhibited"},
      {"measurement": "growth inhibition", "setting": "[12]", "result": "growth inhibited in a dose dependent fashion"},
      {"measurement": "growth inhibition", "setting": "T24 bladder cancer cells", "result": "growth inhibited in a dose dependent fashion"},
      {"measurement": "growth inhibition", "setting": "[13]", "result": "growth inhibited in a dose dependent fashion"},
      {"measurement": "growth inhibition", "setting": "[14]", "result": "growth inhibited in a dose dependent fashion"},
      {"measurement": "CHOP expression (ER stress)", "setting": "A498 ccRCC xenografts [15]", "result": "Increased expression of CHOP"},
      {"measurement": "apoptosis by PARP cleavage with addition of OA-BSA", "setting": "[16]; A939572 + OA-BSA", "result": "blocked apoptosis"},
      {"measurement": "apoptosis by PARP cleavage", "setting": "[16]; western blot, all four cell lines", "result": "induced apoptosis"},
      {"measurement": "growth inhibition", "setting": "Panc cells", "result": "growth inhibited at only high levels"},
      {"measurement": "growth inhibition", "setting": "MiaPaca cells", "result": "growth inhibited in a dose dependent fashion"},
      {"measurement": "protein expression of ER stress markers BiP, CHOP, spliced-XBP1", "setting": "Caki1 and A498 cells", "result": "amplified expression"},
      {"measurement": "reporter activation with addition of OA-BSA", "setting": "[17]; Caki1, + OA-BSA", "result": "significantly reduced reporter activation"},
      {"measurement": "luciferase activity, fold change induction", "setting": "[17]; Caki1, +BSA, 75 nM A939572 or shSCD780, 48 hours, vs DMSO and NT controls", "result": 1.6, "unit": "fold change"},
      {"measurement": "expression of ER stress response genes associated with UPR", "setting": "[18]", "result": "increased expression of ER stress response genes"}
    ]}
  ]
}
